For 32 molecules, IC50 results are on record in patent publication US20260285872A1, “COMPOUNDS AND METHODS FOR DEGRADING GSPT1” (priority 2023, published 2026).

A value given as a limit tells only on which side of the number the result lay.

The test system of the first assay is NCI-H1155 cells. The assay is described as follows: NSCLC cell viability, CellTiter-Glo, NCI-H1155 cells. It is filed as cell-based. The note with it: Homo sapiens, NCI-H1155, 72 h, read-out: Cell viability classification (NCI-H1155). A general note: ATP-based viability assays read luminescence as a measure of living cells.
With `O=C1CCC(N2Cc3cc(C(=O)N4Cc5c(F)ccc(OC(F)(F)F)c5C4)ccc3C2=O)C(=O)N1` (centres unmarked) [Example 185, 3-(5-(4-fluoro-7-(trifluoromethoxy)isoindoline-2-carbonyl)-1-oxoisoindolin-2-yl)piperidine-2,6-dione], the IC50 is 100 to 1000 nM.

Staying with this assay, now noted: Homo sapiens; NCI-H1155 cells, CellTiter-Glo, 72 hours of treatment; read-out: Cell viability classification (NCI-H1155).
On to `O=C1CCC(N2Cc3cc(C(=O)N4CC5(CCOCC5)C4)ccc3C2=O)C(=O)N1` (centres unmarked) [Example 186, 3-(1-oxo-5-(7-oxa-2-azaspiro[3.5]nonane-2-carbonyl)isoindolin-2-yl)piperidine-2,6-dione], for which the IC50 was more than 1000 nM.

Regarding `O=C1CCC(N2Cc3cc(C(=O)N4CC5(CCOC5)C4)ccc3C2=O)C(=O)N1` (centres unmarked) [Example 187, 3-(1-oxo-5-(6-oxa-2-azaspiro[3.4]octane-2-carbonyl)isoindolin-2-yl)piperidine-2,6-dione], the IC50 was more than 1000 nM.

With `O=C1CCC(N2Cc3cc(C(=O)N4CC5(COC5)C4)ccc3C2=O)C(=O)N1` (centres unmarked) [Example 188, 3-(1-oxo-5-(2-oxa-6-azaspiro[3.3]heptane-6-carbonyl)isoindolin-2-yl)piperidine-2,6-dione], the IC50 is more than 1000 nM.

As to `O=C1CCC(N2Cc3cc(C(=O)N4CCC5(CCC(F)(F)CC5)C4)ccc3C2=O)C(=O)N1` (centres unmarked) [Example 190, 3-(5-(8,8-difluoro-2-azaspiro[4.5]decane-2-carbonyl)-1-oxoisoindolin-2-yl)piperidine-2,6-dione], the IC50 is more than 1000 nM.

As for `O=C1CCC(N2Cc3cc(C(=O)N4CC(F)(c5cccc(F)c5)C4)ccc3C2=O)C(=O)N1` (centres unmarked) [Example 191, 3-(5-(3-fluoro-3-(3-fluorophenyl)azetidine-1-carbonyl)-1-oxoisoindolin-2-yl)piperidine-2,6-dione], the IC50 lay within 100 to 1000 nM.

In the case of `O=C1CCC(N2Cc3cc(C(=O)N4CC(c5ccc(F)cc5)C4)ccc3C2=O)C(=O)N1` (centres unmarked) [Example 192, 3-(5-(3-(4-fluorophenyl)azetidine-1-carbonyl)-1-oxoisoindolin-2-yl)piperidine-2,6-dione], the IC50 lay within 100 to 1000 nM.

`O=C1CCC(N2Cc3cc(C(=O)N4CC(c5cccc(F)c5)C4)ccc3C2=O)C(=O)N1` (centres unmarked) [Example 193, 3-(5-(3-(3-fluorophenyl)azetidine-1-carbonyl)-1-oxoisoindolin-2-yl)piperidine-2,6-dione]: the IC50 lay in the range of 100 to 1000 nM.

As to `O=C1CCC(N2Cc3cc(C(=O)N4CC(c5ccccc5F)C4)ccc3C2=O)C(=O)N1` (centres unmarked) [Example 194, 3-(5-(3-(2-fluorophenyl)azetidine-1-carbonyl)-1-oxoisoindolin-2-yl)piperidine-2,6-dione], the IC50 was in the range of 100 to 1000 nM.

In the case of `O=C1CCC(c2nc3ccc(COC(=O)Nc4cc(OC(F)(F)F)ccc4F)cc3o2)C(=O)N1` (centres unmarked) [Example 212, (2-(2,6-dioxopiperidin-3-yl)benzo[d]oxazol-6-yl)methyl (2-fluoro-5-(trifluoromethoxy)phenyl)carbamate], the IC50 fell in the range of 100 to 1000 nM.

Regarding `O=C1CCC(N2Cc3cc(C(=O)NC4CC5(C=C(c6ccc(OC(F)(F)F)cc6)C5)C4)ccc3C2=O)C(=O)N1` (centres unmarked) [Example 213, 2-(2,6-dioxopiperidin-3-yl)-1-oxo-N-(6-(4-(trifluoromethoxy)phenyl)spiro[3.3]hept-5-en-2-yl)isoindoline-5-carboxamide], the IC50 was 100 to 1000 nM.

Take `O=C1CCC(N2Cc3cc(C(=O)NC4CC5(C=C(c6ccc(F)cc6F)C5)C4)ccc3C2=O)C(=O)N1` (centres unmarked) [Example 214, N-(6-(2,4-difluorophenyl)spiro[3.3]hept-5-en-2-yl)-2-(2,6-dioxopiperidin-3-yl)-1-oxoisoindoline-5-carboxamide]: the IC50 fell in the range of 100 to 1000 nM.

With `O=C1CCC(N2Cc3cc(C(=O)NC4CC5(C=C(c6ccc(F)c(F)c6)C5)C4)ccc3C2=O)C(=O)N1` (centres unmarked) [Example 215, N-(6-(3,4-difluorophenyl)spiro[3.3]hept-5-en-2-yl)-2-(2,6-dioxopiperidin-3-yl)-1-oxoisoindoline-5-carboxamide], the IC50 lay in the range of 100 to 1000 nM.

Regarding `N#Cc1ccc(C2=CC3(C2)CC(NC(=O)c2ccc4c(c2)CN(C2CCC(=O)NC2=O)C4=O)C3)cc1` (centres unmarked) [Example 216, N-(6-(4-cyanophenyl)spiro[3.3]hept-5-en-2-yl)-2-(2,6-dioxopiperidin-3-yl)-1-oxoisoindoline-5-carboxamide], the IC50 lay in the range of 100 to 1000 nM.

Take `O=C1CCC(c2nc3ccc(C(=O)N4CC5(CCC(F)(F)CC5)C4)cc3o2)C(=O)N1` (centres unmarked) [Example 220, 3-(6-(7,7-difluoro-2-azaspiro[3.5]nonane-2-carbonyl)benzo[d]oxazol-2-yl)piperidine-2,6-dione]: the IC50 is more than 1000 nM.

For `O=C1CCC(c2nc3ccc(C(=O)N4CC5(CC=C(F)CC5)C4)cc3o2)C(=O)N1` (centres unmarked) [Example 221, 3-(6-(7-fluoro-2-azaspiro[3.5]non-6-ene-2-carbonyl)benzo[d]oxazol-2-yl)piperidine-2,6-dione], the IC50 was 100 to 1000 nM.

`O=C1CCC(N2Cc3cc(C(=O)N4CC5(CCC(C(F)(F)F)C5)C4)ccc3C2=O)C(=O)N1` (centres unmarked) [Example 222, 3-(1-oxo-5-(6-(trifluoromethyl)-2-azaspiro[3.4]octane-2-carbonyl)isoindolin-2-yl)piperidine-2,6-dione]: the IC50 fell in the range of 10 to 100 nM.

With `O=C1CCC(c2nc3cc(COC(=O)Nc4ccc(OC(F)(F)F)cc4F)ccc3o2)C(=O)N1` (centres unmarked) [Example 223, (2-(2,6-dioxopiperidin-3-yl)benzo[d]oxazol-5-yl)methyl (2-fluoro-4-(trifluoromethoxy)phenyl)carbamate], the IC50 lay within 100 to 1000 nM.

Regarding `O=C1CCC(c2nc3cc(COC(=O)Nc4cc(Cl)ccc4F)ccc3o2)C(=O)N1` (centres unmarked) [Example 224, (2-(2,6-dioxopiperidin-3-yl)benzo[d]oxazol-5-yl)methyl (5-chloro-2-fluorophenyl)carbamate], the IC50 fell in the range of 100 to 1000 nM.

Take `O=C1CCC(N2Cc3cc(C(=O)NC4CC5(C4)CC(O)(c4ccc(F)cc4)C5)ccc3C2=O)C(=O)N1` (centres unmarked) [Example 225, 2-(2,6-dioxopiperidin-3-yl)-N-(6-(4-fluorophenyl)-6-hydroxyspiro[3.3]heptan-2-yl)-1-oxoisoindoline-5-carboxamide]: the IC50 was more than 1000 nM.

Take `O=C1CCC(N2Cc3cc(C(=O)N4CC5(CC(c6ccc(F)c(F)c6)C5)C4)ccc3C2=O)C(=O)N1` (centres unmarked) [Example 228, 3-(5-(6-(3,4-difluorophenyl)-2-azaspiro[3.3]heptane-2-carbonyl)-1-oxoisoindolin-2-yl)piperidine-2,6-dione]: the IC50 lay in the range of 10 to 100 nM.

As to `O=C1CCC(N2Cc3cc(C(=O)N4CC5(CC(c6ccc(F)cc6F)C5)C4)ccc3C2=O)C(=O)N1` (centres unmarked) [Example 229, 3-(5-(6-(2,4-difluorophenyl)-2-azaspiro[3.3]heptane-2-carbonyl)-1-oxoisoindolin-2-yl)piperidine-2,6-dione], the IC50 was 10 to 100 nM.

For `N#Cc1ccc(C2CC3(C2)CN(C(=O)c2ccc4c(c2)CN(C2CCC(=O)NC2=O)C4=O)C3)cc1` (centres unmarked) [Example 232, 4-(2-(2-(2,6-dioxopiperidin-3-yl)-1-oxoisoindoline-5-carbonyl)-2-azaspiro[3.3]heptan-6-yl)benzonitrile], the IC50 lay in the range of 100 to 1000 nM.

As for `COc1ccc(C2CC3(C2)CN(C(=O)c2ccc4c(c2)CN(C2CCC(=O)NC2=O)C4=O)C3)cc1` (centres unmarked) [Example 233, 3-(5-(6-(4-methoxyphenyl)-2-azaspiro[3.3]heptane-2-carbonyl)-1-oxoisoindolin-2-yl)piperidine-2,6-dione], the IC50 is more than 1000 nM.

`O=C1CCC(N2Cc3cc(C(=O)N4CC5(C=C(c6ccc(F)c(F)c6)C5)C4)ccc3C2=O)C(=O)N1` (centres unmarked) [Example 234, 3-(5-(6-(3,4-difluorophenyl)-2-azaspiro[3.3]hept-5-ene-2-carbonyl)-1-oxoisoindolin-2-yl)piperidine-2,6-dione]: the IC50 was in the range of 10 to 100 nM.

For `COc1ccc(C2=CC3(C2)CN(C(=O)c2ccc4c(c2)CN(C2CCC(=O)NC2=O)C4=O)C3)cc1` (centres unmarked) [Example 237, 3-(5-(6-(4-methoxyphenyl)-2-azaspiro[3.3]hept-5-ene-2-carbonyl)-1-oxoisoindolin-2-yl)piperidine-2,6-dione], the IC50 was more than 1000 nM.

For `N#Cc1ccccc1C1=CC2(C1)CN(C(=O)c1ccc3c(c1)CN(C1CCC(=O)NC1=O)C3=O)C2` (centres unmarked) [Example 238, 2-(2-(2-(2,6-dioxopiperidin-3-yl)-1-oxoisoindoline-5-carbonyl)-2-azaspiro[3.3]hept-5-en-6-yl)benzonitrile], the IC50 is 100 to 1000 nM.

Take `N#Cc1ccccc1C1CC2(C1)CN(C(=O)c1ccc3c(c1)CN(C1CCC(=O)NC1=O)C3=O)C2` (centres unmarked) [Example 239, 2-(2-(2-(2,6-dioxopiperidin-3-yl)-1-oxoisoindoline-5-carbonyl)-2-azaspiro[3.3]heptan-6-yl)benzonitrile]: the IC50 was 100 to 1000 nM.

On to `N#Cc1ccc(C2=CC3(C2)CN(C(=O)c2ccc4c(c2)CN(C2CCC(=O)NC2=O)C4=O)C3)cc1` (centres unmarked) [Example 242, 4-(2-(2-(2,6-dioxopiperidin-3-yl)-1-oxoisoindoline-5-carbonyl)-2-azaspiro[3.3]hept-5-en-6-yl)benzonitrile], for which the IC50 lay in the range of 10 to 100 nM.

As for `O=C1CCC(N2Cc3cc(C(=O)N4CC5(C4)CC(O)(c4ccc(F)cc4)C5)ccc3C2=O)C(=O)N1` (centres unmarked) [Example 243, 3-(5-(6-(4-fluorophenyl)-6-hydroxy-2-azaspiro[3.3]heptane-2-carbonyl)-1-oxoisoindolin-2-yl)piperidine-2,6-dione], the IC50 is more than 1000 nM.

On to `COC1(c2ccc(F)cc2)CC2(CN(C(=O)c3ccc4c(c3)CN(C3CCC(=O)NC3=O)C4=O)C2)C1` (centres unmarked) [Example 244, 3-(5-(6-(4-fluorophenyl)-6-methoxy-2-azaspiro[3.3]heptane-2-carbonyl)-1-oxoisoindolin-2-yl)piperidine-2,6-dione], for which the IC50 lay within 100 to 1000 nM.

In the case of `O=C1CCC(N2Cc3cc(C(=O)N4CC5(CC(c6ccc(C(F)(F)F)c(F)c6)C5)C4)ccc3C2=O)C(=O)N1` (centres unmarked) [Example 245, 3-(5-(6-(3-fluoro-4-(trifluoromethyl)phenyl)-2-azaspiro[3.3]heptane-2-carbonyl)-1-oxoisoindolin-2-yl)piperidine-2,6-dione], the IC50 is 10 to 100 nM.
